Data from PubChem BioAssay AID328 (DTP/NCI, 2004).
Several values for one entry are separate records, joined by “and”; a condition that tells them apart may be missing. Equal entries are not always repeated. Inconclusive results and toxic doses are left out.

System: BDF1 mice, P388 leukemia ip, median survival T/C
Experiment: NCI In Vivo Anticancer Drug Screen. Data for tumor model P388 Leukemia (intraperitoneal) in B6D2F1 (BDF1) mice
Conditions: endpoint: median survival time, higher = longer survival
Method in brief: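 Steps: implant the tumour, treat one group with compound and another with vehicle, record survival, then divide treated by control.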

[1] = dose: 100.0 mg/kg/injection, schedule: Q01DX009 (ip), vehicle: Klucel (hydroxypropylcellulose) (HPC)
[2] = dose: 200.0 mg/kg/injection, schedule: Q01DX009 (ip), vehicle: Klucel (hydroxypropylcellulose) (HPC)
[3] = dose: 400.0 mg/kg/injection, schedule: Q01DX009 (ip), vehicle: Klucel (hydroxypropylcellulose) (HPC)
[4] = dose: 100.0 mg/kg/injection, schedule: Q04DX003 (ip), vehicle: Klucel (hydroxypropylcellulose) (HPC)
[5] = dose: 200.0 mg/kg/injection, schedule: Q04DX003 (ip), vehicle: Klucel (hydroxypropylcellulose) (HPC)
[6] = dose: 400.0 mg/kg/injection, schedule: Q04DX003 (ip), vehicle: Klucel (hydroxypropylcellulose) (HPC)
[7] = dose: 50.0 mg/kg/injection, schedule: Q01DX009 (ip), vehicle: saline with Tween-80
[8] = dose: 100.0 mg/kg/injection, schedule: Q01DX009 (ip), vehicle: saline with Tween-80
[9] = dose: 200.0 mg/kg/injection, schedule: Q01DX009 (ip), vehicle: saline with Tween-80
[10] = dose: 100.0 mg/kg/injection, schedule: Q04DX003 (ip), vehicle: saline with Tween-80
[11] = dose: 200.0 mg/kg/injection, schedule: Q04DX003 (ip), vehicle: saline with Tween-80
[12] = dose: 400.0 mg/kg/injection, schedule: Q04DX003 (ip), vehicle: saline with Tween-80
[13] = dose: 25.0 mg/kg/injection, schedule: Q01DX009 (ip), vehicle: saline with Tween-80

In the case of `CN(C)C=Nc1ccccc1`, the T/C [1] is reported as 113 % of control, the T/C [2] is reported as 95 % of control and the T/C [3] is reported as 109 % of control.

For `CN(C)c1ccc(/C=C/c2nc3ccccc3s2)cc1`, the T/C [1] was 100 % of control, the T/C [4] was 112 % of control and the T/C [2] was 109 % of control. The T/C [5] was 108 % of control, the T/C [3] was 109 % of control and the T/C [6] was 100 % of control.

`Ic1ncnc2c1ncn2C1CCCCO1` (centres undefined) was tested, and the T/C (dose: 100.0 mg/kg/injection, schedule: Q04DX003 (ip), vehicle: saline sonified) was 91 % of control, the T/C (dose: 200.0 mg/kg/injection, schedule: Q04DX003 (ip), vehicle: saline sonified) was 91 % of control and the T/C (dose: 400.0 mg/kg/injection, schedule: Q04DX003 (ip), vehicle: saline sonified) was 91 % of control.

In the case of `O=C1C(Cl)=C(N=Nc2c(Cl)c(O)c3ccccc3c2O)C(=O)c2ccccc21`, the T/C (dose: 3.12 mg/kg/injection, schedule: Q01DX009 (ip), vehicle: Klucel (hydroxypropylcellulose) (HPC)) is reported as 110 % of control, the T/C (dose: 6.25 mg/kg/injection, schedule: Q01DX009 (ip), vehicle: Klucel (hydroxypropylcellulose) (HPC)) is reported as 115 % of control and the T/C (dose: 12.5 mg/kg/injection, schedule: Q01DX009 (ip), vehicle: Klucel (hydroxypropylcellulose) (HPC)) is reported as 116 % of control. For the same compound, the T/C (dose: 25.0 mg/kg/injection, schedule: Q01DX009 (ip), vehicle: Klucel (hydroxypropylcellulose) (HPC)) was 109 % of control.

In the case of `CC(C)Cn1cnc2c(SCc3ccc(Cl)cc3Cl)nc(N)nc21`, the T/C (dose: 66.0 mg/kg/injection, schedule: Q01DX009 (ip), vehicle: gum acacia) is reported as 112 % of control, the T/C (dose: 100.0 mg/kg/injection, schedule: Q01DX009 (ip), vehicle: gum acacia) is reported as 95 % of control and the T/C (dose: 100.0 mg/kg/injection, schedule: Q04DX003 (ip), vehicle: gum acacia) is reported as 88 % of control. The T/C (dose: 150.0 mg/kg/injection, schedule: Q01DX009 (ip), vehicle: gum acacia) was 100 % of control, the T/C (dose: 200.0 mg/kg/injection, schedule: Q01DX009 (ip), vehicle: gum acacia) was 104 % of control and the T/C (dose: 200.0 mg/kg/injection, schedule: Q04DX003 (ip), vehicle: gum acacia) was 88 % of control. For the same compound, the T/C (dose: 400.0 mg/kg/injection, schedule: Q01DX009 (ip), vehicle: gum acacia) was 120 % of control.

With `Cn1c(=O)[nH]cc([N+](=O)[O-])c1=O` the T/C [7] was 104 % of control, the T/C [8] was 105 % of control and the T/C [9] was 98 % of control.

`N/C(=N\OC(=O)NC(Cl)=C(Cl)Cl)c1ccc(Cl)cc1` was tested, and the T/C (dose: 50.0 mg/kg/injection, schedule: Q01DX005 (ip), vehicle: saline with Tween-80) was 92 % of control and the T/C (dose: 100.0 mg/kg/injection, schedule: Q01DX005 (ip), vehicle: saline with Tween-80) was 114 % of control.

For `COc1ccc(C(C)c2ccccc2)cc1C(C)c1ccccc1` (centres undefined), the T/C [10] was 109 % of control, the T/C [11] was 90 % of control and the T/C [12] was 100 % of control.

For `Cc1ccc(NS(=O)(=O)c2ccc(F)cc2)cc1C`, the T/C [4] was 109 % of control, the T/C [5] was 109 % of control and the T/C [6] was 104 % of control.

In the case of `OCCN1CCNC1=S`, the T/C (dose: 100.0 mg/kg/injection, schedule: Q04DX003 (ip), vehicle: saline) is reported as 95 % of control, the T/C (dose: 200.0 mg/kg/injection, schedule: Q04DX003 (ip), vehicle: saline) is reported as 91 % of control and the T/C (dose: 400.0 mg/kg/injection, schedule: Q04DX003 (ip), vehicle: saline) is reported as 91 % of control.

In the case of `CSc1nnc(/C=C/c2ccc3c(c2)OCO3)c(=O)n1N`, the T/C (dose: 100.0 mg/kg/injection, schedule: Q04DX002 (ip), vehicle: saline with Tween-80) is reported as 106 % of control and the T/C (dose: 200.0 mg/kg/injection, schedule: Q04DX002 (ip), vehicle: saline with Tween-80) is reported as 106 % of control.

In the case of `CCCNC(=O)Oc1c(C(C)C)ccc(C)c1Cl`, the T/C [10] is reported as 100 % of control, the T/C [11] is reported as 90 % of control and the T/C [12] is reported as 104 % of control.

For `C[n+]1c2ccccc2cc2ccccc21`, the T/C [13] was 118 % of control.

For `COc1cccc2c1C(=O)c1c(O)c3c(c(O)c1C2=O)C[C@@](O)(C(C)=O)C[C@@H]3OC1CC(NC=O)C(O)C(C)O1` (some centres undefined), the T/C (dose: 0.25 mg/kg/injection, schedule: Q01DX009 (ip), vehicle: water) was 108 % of control and 110 % of control, the T/C (dose: 0.5 mg/kg/injection, schedule: Q01DX009 (ip), vehicle: water) was 110 % of control and 117 % of control and the T/C (dose: 1.0 mg/kg/injection, schedule: Q01DX009 (ip), vehicle: water) was 107 % of control. The T/C (dose: 2.0 mg/kg/injection, schedule: Q01DX009 (ip), vehicle: water) was 186 % of control, the T/C (dose: 4.0 mg/kg/injection, schedule: Q01DX009 (ip), vehicle: water) was 205 % of control and the T/C (dose: 8.0 mg/kg/injection, schedule: Q01DX009 (ip), vehicle: water) was 169 % of control.

With `C=CCCCCCCCCC(=O)NCCCN1CCOCC1` the T/C [13] was 100 % of control, the T/C [7] was 109 % of control and the T/C [8] was 100 % of control.

In the case of `O=C(c1ccccc1)C1CCC(=O)C1c1ccccc1` (centres undefined), the T/C [7] is reported as 108 % of control, the T/C [8] is reported as 100 % of control and the T/C [9] is reported as 99 % of control.

For `CN(C)c1ccc(C=O)cc1Br`, the T/C (dose: 50.0 mg/kg/injection, schedule: Q01DX009 (ip), vehicle: Klucel (hydroxypropylcellulose) (HPC)) was 95 % of control, the T/C [1] was 95 % of control and the T/C [4] was 100 % of control. The T/C [2] was 100 % of control, the T/C [5] was 100 % of control and the T/C [6] was 100 % of control.

With `CC(C)(C)OC(=O)NNC(c1ccccc1)c1ccccc1` the T/C (dose: 50.0 mg/kg/injection, schedule: Q01DX001 (ip), vehicle: Klucel (hydroxypropylcellulose) (HPC)) was 91 % of control, the T/C (dose: 50.0 mg/kg/injection, schedule: Q01DX009 (ip), vehicle: other) was 105 % of control and the T/C (dose: 100.0 mg/kg/injection, schedule: Q01DX001 (ip), vehicle: Klucel (hydroxypropylcellulose) (HPC)) was 91 % of control. The T/C (dose: 100.0 mg/kg/injection, schedule: Q01DX009 (ip), vehicle: other) was 110 % of control, the T/C [4] was 105 % of control and the T/C (dose: 200.0 mg/kg/injection, schedule: Q01DX001 (ip), vehicle: Klucel (hydroxypropylcellulose) (HPC)) was 95 % of control. For the same compound, the T/C (dose: 200.0 mg/kg/injection, schedule: Q01DX009 (ip), vehicle: other) was 100 % of control, the T/C [5] was 110 % of control and the T/C [6] was 105 % of control.

With `C[n+]1c(/C=C/c2ccc(N(CCC(=O)O)CCC(=O)O)cc2)ccc2cc(Cl)ccc21` the T/C (dose: 12.5 mg/kg/injection, schedule: Q01DX001 (ip), vehicle: saline with Tween-80) was 109 % of control and the T/C (dose: 25.0 mg/kg/injection, schedule: Q01DX001 (ip), vehicle: saline with Tween-80) was 88 % of control.

In the case of `Cc1cc(-c2ccc(Cl)cc2)[n+](C)n1C`, the T/C (dose: 12.5 mg/kg/injection, schedule: Q01DX009 (ip), vehicle: saline with Tween-80) is reported as 100 % of control and the T/C [13] is reported as 111 % of control.

In the case of `CC1OC(OC2C(O)CC(OC3C(O)CC(OC4CCC5(C)C(CCC6C5CCC5(C)C(C7=CC(=O)OC7)CCC65O)C4)OC3C)OC2C)CC(O)C1O` (centres undefined), the T/C (dose: 0.63 mg/kg/injection, schedule: Q01DX010 (ip), vehicle: saline) is reported as 113 % of control, the T/C (dose: 1.25 mg/kg/injection, schedule: Q01DX010 (ip), vehicle: saline) is reported as 100 % of control and the T/C (dose: 2.5 mg/kg/injection, schedule: Q01DX010 (ip), vehicle: saline) is reported as 118 % of control. The T/C (dose: 5.0 mg/kg/injection, schedule: Q01DX010 (ip), vehicle: saline) was 100 % of control.

`CCOC(=O)NC(CC)CO` (centres undefined) was tested, and the T/C [1] was 100 % of control, the T/C [2] was 95 % of control and the T/C [3] was 90 % of control.

In the case of `COc1ccc2c(c1)C(Cc1ccc(Oc3ccc(CC4c5cc(OC)ccc5CC[N+]4(C)C)cc3)cc1)[N+](C)(C)CC2` (centres undefined), the T/C (dose: 0.1 mg/kg/injection, schedule: Q04DX003 (ip), vehicle: saline) is reported as 104 % of control, the T/C (dose: 0.2 mg/kg/injection, schedule: Q04DX003 (ip), vehicle: saline) is reported as 100 % of control and the T/C (dose: 0.39 mg/kg/injection, schedule: Q04DX003 (ip), vehicle: saline with Tween-80) is reported as 93 % of control. The T/C (dose: 0.4 mg/kg/injection, schedule: Q04DX003 (ip), vehicle: saline) was 96 % of control.

For `CCOc1ccc(N2C(=O)CSC2=S)cc1`, the T/C [7] was 104 % of control, the T/C (dose: 50.0 mg/kg/injection, schedule: Q04DX003 (ip), vehicle: saline with Tween-80) was 110 % of control and the T/C [8] was 100 % of control. For the same compound, the T/C [10] was 100 % of control, the T/C [9] was 95 % of control and the T/C [11] was 100 % of control.

With `CCCCCCCCCCC(=O)OCC#CC#CCOC(=O)CCCCCCCCCC` the T/C [4] was 104 % of control, the T/C [5] was 104 % of control and the T/C [6] was 100 % of control.
